The subject of assay [1] is Complex I: NADH:ubiquinone oxidoreductase. The assay is described as follows: Complex I activity in lysed rat brain mitochondria. It counts as biochemical. As to conditions: for Effect on complex I activity: lysed rat brain mitochondria, 30 min pre-incubation (same with no pre-incubation).
For assay [2], the target named is Complex II: succinate:ubiquinone oxidoreductase (Rattus norvegicus, UniProt P21913+Q641Z9+Q6PCT8+Q920L2). The assay is described as follows: Complex II activity. As to conditions: for Effect on complex II activity: lysed rat brain mitochondria, 15 min pre-incubation at room temperature, malonate sensitive activity. It counts as biochemical.
For assay [3], the system named is Complex IV: ferrocytochrome C oxidase:oxygen oxidoreductase. The assay is described as follows: Complex IV activity in lysed rat brain mitochondria. It is filed as biochemical. As to conditions: for Effect on complex IV activity: lysed rat brain mitochondria, 15 min pre-incubation at room temperature; for Prevention of the complex IV inhibition observed with DAH: (2U) SOD plus (2U) Cat, 10 uM pargyline and 10 uM clorgyline, DTT 50 uM, data not shown.

Assay [4] deals with Complex I/III: NADH:cytochrome C-oxidoreductase. The assay is described as follows: Complex I/III activity in lysed rat brain mitochondria. It is filed as biochemical.
For assay [5], the system named is Complex II/III: succinate:cytochrome C-oxidoreductase. As to the kind of experiment: Complex II/III activity in lysed rat brain mitochondria. It is filed as biochemical.
A further assay concerns complex I. As to conditions: cited from earlier work.
The subject of another assay is complex IV. As to conditions: cited from earlier work; for Inhibition of complex IV: 400 uM DA, 2 hrs of incubation.
The target of assay [6] is Complex III: ubiquinol: ferricytochrome C oxidoreductase. As to the kind of experiment: Complex III activity in lysed rat brain mitochondria. It counts as biochemical. As to conditions: for Inhibition of complex III activity: myxothiazol (60uM) and antimycin A (0.002mg/ml) together, parallel control.
For assay [7], the system named is NADH-Oxidase (complexes I, III and IV). The assay is described as follows: NADH-oxidase activity in lysed rat brain mitochondria. It is filed as biochemical.
[8] abbreviates: read-out: Inhibition of complex II activity.

Where “and” joins values, the source holds several entries; their conditions need not be identical. Equal values may be shown once. Entries after “also recorded” stand apart in the source; their conditions may differ. Read-outs that look alike come from different tables or passages of the source.

Complex II: succinate:ubiquinone oxidoreductase, sequence (Q920L2 35-656): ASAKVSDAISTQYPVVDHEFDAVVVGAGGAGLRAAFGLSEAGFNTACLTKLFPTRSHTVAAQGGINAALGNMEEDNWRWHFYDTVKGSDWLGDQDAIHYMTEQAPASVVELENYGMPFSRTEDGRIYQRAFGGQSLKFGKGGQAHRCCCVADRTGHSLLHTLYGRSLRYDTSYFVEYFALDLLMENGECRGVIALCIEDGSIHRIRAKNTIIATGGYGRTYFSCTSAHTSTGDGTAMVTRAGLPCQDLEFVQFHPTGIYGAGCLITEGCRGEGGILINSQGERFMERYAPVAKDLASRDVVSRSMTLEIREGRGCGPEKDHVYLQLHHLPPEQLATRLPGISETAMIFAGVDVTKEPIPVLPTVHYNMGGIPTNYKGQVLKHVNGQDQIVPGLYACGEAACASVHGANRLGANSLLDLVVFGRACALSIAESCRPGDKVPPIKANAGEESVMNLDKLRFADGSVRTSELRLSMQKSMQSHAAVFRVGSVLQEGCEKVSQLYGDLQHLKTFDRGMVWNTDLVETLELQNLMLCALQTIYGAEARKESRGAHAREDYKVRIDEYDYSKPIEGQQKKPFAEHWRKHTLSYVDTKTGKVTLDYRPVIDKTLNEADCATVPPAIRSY
Complex II: succinate:ubiquinone oxidoreductase, sequence (P21913 31-282): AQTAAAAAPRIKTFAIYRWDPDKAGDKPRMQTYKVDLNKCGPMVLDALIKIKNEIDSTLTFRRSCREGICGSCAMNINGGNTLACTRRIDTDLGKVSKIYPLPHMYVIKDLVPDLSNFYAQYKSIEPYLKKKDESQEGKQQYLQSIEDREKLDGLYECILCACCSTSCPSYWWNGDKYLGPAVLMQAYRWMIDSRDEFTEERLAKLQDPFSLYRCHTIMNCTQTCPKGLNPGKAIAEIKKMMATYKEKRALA
Complex II: succinate:ubiquinone oxidoreductase, sequence (Q641Z9 1-169): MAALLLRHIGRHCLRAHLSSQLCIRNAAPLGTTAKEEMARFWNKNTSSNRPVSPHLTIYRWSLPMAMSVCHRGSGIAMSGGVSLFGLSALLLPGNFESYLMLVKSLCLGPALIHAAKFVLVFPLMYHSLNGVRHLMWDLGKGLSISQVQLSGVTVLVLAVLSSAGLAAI
Complex II: succinate:ubiquinone oxidoreductase, sequence (Q6PCT8 57-159): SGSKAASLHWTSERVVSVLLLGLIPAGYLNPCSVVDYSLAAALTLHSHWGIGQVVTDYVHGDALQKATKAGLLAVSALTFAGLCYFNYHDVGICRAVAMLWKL

In the case of `NCCc1ccc(O)c(O)c1` [DAH, dopamine], in assay [1], the “Effect on complex I activity” value was “not affected; also recorded: No effect at 1mM”. Also, the “Effect on complex II activity” value in assay [2] is “Significantly inhibited at 500 uM and 1mM”. For the same compound, in [2] (setting [8]), the inhibition (commonly the change of the read-out against control, counted positive when it falls) at 500 µM is 32.7 ± 2%. For the same compound, the inhibition at 1000 µM in [2] (setting [8]) was found to be 41.9 ± 5.5%. Also, the “Complex IV activity, % of control” value in assay [3] (1 mM DAH, concluded to be an artifact (back reaction with oxidized cytochrome C)) was 61 % of control. Moreover, in assay [3], the “Effect on complex IV activity” value is “Inhibited at 1mM due to artifactual competing back reaction between oxidized cytochrome C and reduced dopamine”. Besides, the “Complex I/III activity, mean % of control” value in assay [4] (200 uM DA plus tyrosinase (25U) alone (DAQ), ± sem) is on record as 7 % of control. For the same compound, in assay [5], the “Effect on complex II/III activity” value is given as “inhibited complex II/III activity to a similar extent as was observed with complex II alone”. Besides, the IC50 (commonly the concentration that inhibits the measured activity by half) in the assay with complex I (read-out: IC50 for inhibition of complex I) was 8 to 12 µM and 8.12 µM. Besides, the “Inhibition of complex IV” value in the assay on complex IV (ref 29) is reported as 62.8%; in the assay on complex IV (ref 30), 57%. For the same compound, the “Effect on complex IV” value with complex IV (DA up to 1mM, 1 min incubation) is “no inhibition”.
For the compound `O=C(O)Cc1ccc(O)c(O)c1` [DOPAC-H, 3,4-dihydroxyphenylacetic acid], the “Effect on complex I activity” value in assay [1] is listed as “not affected; also recorded: No effect at 1mM”. Besides, the “Effect on complex II activity” value in assay [2] is “not significantly affected; also recorded: not attenuated; also recorded: No effect at 1mM”. In addition, the “Effect on complex IV activity” value in assay [3] is “not affected; also recorded: No effect at 1mM”; in the assay on complex IV (400 uM DOPAC, rat brain mitochondria, 2 hr pre-incubation), “only marginal effects”. In assay [5] (lysed rat brain mitochondria, 15 min exposure at room temperature, inhibitor corrected rates), the “Effect on complex II/III activity” value is “did not significantly inhibit”.
Consider `O=C(O)CC1=CC(=O)C(=O)C=C1` [DOPAC-Q], for which, in assay [2], the “Effect on complex II activity” value was “did not attenuate; also recorded: No effect up to 400 uM”. Further, the IC50 in [6] (read-out: IC50 for inhibition of complex III activity, 15 min pre-incubation at room temperature, mean ± SEM) turned out to be 110 µM. Moreover, the “Effect on complex IV activity” value in [3] was “did not inhibit; also recorded: No effect up to 400 uM”.
In the case of `O[C@@H](CS)[C@@H](O)CS` [DTT, dithioreitol, reference compound], in [3] (1 mM DAH), the “Prevention of the complex IV inhibition observed with DAH” value is recorded as “not prevented”.
Regarding `CCCCCC[C@H]1C(=O)O[C@H](C)[C@H](NC(=O)c2cccc(NC=O)c2O)C(=O)O[C@@H](C)[C@@H]1OC(=O)CC(C)C` [antimycin A], in assay [6], the “Inhibition of complex III activity” value is recorded as at least 95%.
Turning to `C#CCN(C)CCCOc1ccc(Cl)cc1Cl` [clorgyline, reference compound], the “Prevention of the complex IV inhibition observed with DAH” value in assay [3] (1 mM DAH) was “not prevented”.
`CC(=O)N(O)CCCCCNC(=O)CCC(=O)N(O)CCCCCNC(=O)CCC(=O)N(O)CCCCCN` [desferoxamine, reference compound]: the “Attenuation of DA mediated inhibition of complex I activity” value in the assay with complex I was “partially attenuated”.
With `O=C(O)CC(=O)O` [malonate, reference compound], the “Inhibition of complex II activity” value in assay [2] (malonate 10mM, parallel control) is listed as 90–95%.
Turning to `CO/C(=C/C(N)=O)[C@H](C)[C@H](/C=C/c1csc(-c2csc([C@@H](C)/C=C/C=C/C(C)C)n2)n1)OC` [myxothiazol], in [6], the “Inhibition of complex III activity” value was at least 95%.
As for `C#CCN(C)Cc1ccccc1` [pargyline, reference compound], in assay [3] (1 mM DAH), the “Prevention of the complex IV inhibition observed with DAH” value is “not prevented”.
On to `C=C(C)[C@H]1Cc2c(ccc3c2O[C@@H]2COc4cc(OC)c(OC)cc4[C@@H]2C3=O)O1` [rotenone, reference compound], for which the “Inhibition of NADH-oxidase activity” value in [7] is on record as at least 90%. Also, in [4], the “Inhibition of complex I/III activity” value was at least 95%.
In the case of catalase, in [1] (50 uM DAQ plus SOD [2U] and catalase [1U] together), the “Prevention of DAQ mediated inhibition of complex I” value was “did not prevent”. In addition, in assay [3] (1 mM DAH), the “Prevention of the complex IV inhibition observed with DAH” value was “not prevented”.

The values are drawn from PMC3108181 (Biochimica et biophysica acta, 2011).
